For orientation: inhibition means the relative decrease from the control value, in per cent. Lower therefore signals a response near the control. In general, IC50 refers to the midpoint of a concentration-inhibition curve.

For one series, the target named is T1, Kv1.5 (Homo sapiens, UniProt P22460).
T1 construct: expressed in transfected cells; host or cells: HEK or LTK- cells
The experiment in a line: Kv1.5 Patch Clamp EP. Format: cell-based. The note with it: whole cell patch clamp; for IC50: HEK or LTK- cells, at least four concentrations, n=3. As to the method: The external solution is standard Tyrodes solution. […] Inhibition was measured at the end of the 1 second pulses and expressed relative to controls. Initial Kv1.5 inhibition is estimated by single point determinations done at 1 μM.
(Patch clamp records ionic current or voltage across a cell membrane.)

For the next series, the system named is L-type calcium channels. Briefly: FLIPR L-Type Calcium Channel Assay. Format: cell-based, murine. The note with it: HL-1 cells expressing endogenous L-type calcium channels; calcium influx after 20 mM KCl; read-out: L-type Ca^2+ IC50. The procedure: 50 μL per well test compounds are added to the plates and further incubated for 15 min. in a 5% CO2 37° C. incubator. All final solutions contain the anion exchange inhibitor, probenecid (2.5 mM). The 96-well plates are then placed in the center position of the FLIPR 1 (Fluorometric Imaging Plate Reader, Molecular Devices Corporation). Cell monolayers in each well are simultaneously illuminated at 488 nm with an Argon ion laser, and fluorescence emission is monitored using a 510-570 nm bandpass filter and a cooled CCD camera. To depolarize the plasma membrane and activate L-type calcium channels, 50 μL per well of 20 mM KCl (final concentration) are dispensed simultaneously to all 96 wells using the FLIPR's automatic 96-well pipettor. Fluorescence measurements are captured for 5 min. following KCl addition. Calcium influx, expressed as % control, is calculated for each concentration of test compound and concentration-response curves and IC50 values are generated using GraphPad Prism 4.0.

In a further series the target is HERG (Homo sapiens, UniProt Q12809). The experiment in a line: HERG Patch Clamp EP. The note with it: for inhibition at 10 µM: human, HEK cells stably overexpressing HERG.
Where [1] appears, read: 1.0 μM, single point, Kv1.5 stably over expressed in HEK or LTK- cells.

Sequence of HERG (Q12809 whole entry): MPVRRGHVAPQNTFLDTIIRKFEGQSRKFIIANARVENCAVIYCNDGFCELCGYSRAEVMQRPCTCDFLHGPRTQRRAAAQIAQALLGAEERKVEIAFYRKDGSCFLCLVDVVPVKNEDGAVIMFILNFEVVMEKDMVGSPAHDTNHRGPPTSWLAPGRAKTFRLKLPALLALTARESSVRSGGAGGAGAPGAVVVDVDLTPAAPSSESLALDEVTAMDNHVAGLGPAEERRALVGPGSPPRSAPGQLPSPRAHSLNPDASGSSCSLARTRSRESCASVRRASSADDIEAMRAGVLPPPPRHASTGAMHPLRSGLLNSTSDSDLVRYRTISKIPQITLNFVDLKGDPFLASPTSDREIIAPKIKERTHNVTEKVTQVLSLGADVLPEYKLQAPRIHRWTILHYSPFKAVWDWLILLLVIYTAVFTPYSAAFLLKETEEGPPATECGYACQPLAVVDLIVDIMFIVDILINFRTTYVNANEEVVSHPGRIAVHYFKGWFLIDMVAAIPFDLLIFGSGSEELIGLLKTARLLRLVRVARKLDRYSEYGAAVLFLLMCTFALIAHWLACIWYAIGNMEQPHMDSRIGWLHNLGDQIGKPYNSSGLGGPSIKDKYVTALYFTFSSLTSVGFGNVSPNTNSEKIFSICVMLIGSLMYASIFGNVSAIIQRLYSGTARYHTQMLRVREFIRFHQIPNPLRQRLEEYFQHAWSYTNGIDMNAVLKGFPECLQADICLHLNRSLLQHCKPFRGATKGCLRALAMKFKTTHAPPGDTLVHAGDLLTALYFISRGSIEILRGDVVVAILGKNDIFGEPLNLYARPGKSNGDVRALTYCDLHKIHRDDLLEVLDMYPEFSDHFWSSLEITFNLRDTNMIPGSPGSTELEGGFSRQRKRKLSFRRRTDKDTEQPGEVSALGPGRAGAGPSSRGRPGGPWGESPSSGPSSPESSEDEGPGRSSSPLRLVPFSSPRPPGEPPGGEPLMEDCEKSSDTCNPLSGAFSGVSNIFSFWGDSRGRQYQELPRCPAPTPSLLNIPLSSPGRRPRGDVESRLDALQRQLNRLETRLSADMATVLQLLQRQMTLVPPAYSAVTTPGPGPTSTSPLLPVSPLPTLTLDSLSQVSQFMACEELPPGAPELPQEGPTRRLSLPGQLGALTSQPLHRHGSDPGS
T1 sequence (P22460 whole entry): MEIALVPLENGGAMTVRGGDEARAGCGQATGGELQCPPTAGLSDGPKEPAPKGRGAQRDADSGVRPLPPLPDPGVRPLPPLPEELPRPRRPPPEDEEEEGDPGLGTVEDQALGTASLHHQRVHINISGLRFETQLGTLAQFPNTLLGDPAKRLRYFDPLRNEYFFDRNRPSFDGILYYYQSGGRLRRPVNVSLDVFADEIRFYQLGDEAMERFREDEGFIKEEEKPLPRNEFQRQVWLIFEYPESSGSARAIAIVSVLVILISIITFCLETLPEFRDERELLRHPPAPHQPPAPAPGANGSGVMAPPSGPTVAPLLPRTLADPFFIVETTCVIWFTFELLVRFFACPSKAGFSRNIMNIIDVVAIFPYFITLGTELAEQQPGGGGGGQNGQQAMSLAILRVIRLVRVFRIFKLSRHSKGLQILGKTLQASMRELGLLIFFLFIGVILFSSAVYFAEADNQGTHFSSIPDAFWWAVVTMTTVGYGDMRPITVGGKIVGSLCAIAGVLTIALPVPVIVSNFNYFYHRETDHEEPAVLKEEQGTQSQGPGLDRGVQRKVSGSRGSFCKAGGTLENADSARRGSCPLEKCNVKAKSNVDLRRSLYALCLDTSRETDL
Experimental for HERG: HERG currents are recorded by the whole cell mode of patch clamp electrophysiology as described by Hamill et al.^3 HERG is stably over expressed in HEK cells. Microelectrodes are pulled from borosilicate glass (TW150) and heat polished (tip resistance, 1.5 to 3 megaohms). The external solution is standard Tyrodes solution. The internal (microelectrode) solution contained: 110 mM KCl, 5 mM K2ATP, 5 mM K4BAPTA, 1 mM MgCl2 and 10 mM HEPES, adjusted to pH 7.2 with KOH. […] Compounds are prepared as 10-20 mM DMSO stocks and diluted to appropriate test concentrations. […] Inhibition of HERG is measured at the peak of the tail currents and expressed relative to controls. Initial HERG activity is estimated by single point determinations run at 10 μM. Concentration response curves are generated for appropriate compounds utilizing at least four concentrations and an n=3. Curve fitting and IC50 estimating are done using Graphpad software (Ver. 4). • 1.

As to `COc1ccc(CCN2C(=O)N(NS(C)(=O)=O)CC2c2ccc(C)c(C)c2)cc1` (stereo not drawn) [Compound 7, 1-(Methylsulfonylamino)-3-[2-(4-methoxyphenyl)ethyl]-4-(3,4-dimethylphenyl)-2-imidazolidinone], at Kv1.5 (setting [1]), the inhibition at 1 µM worked out at 92%. Besides, the IC50 against Kv1.5 was 0.232 µM; with L-type calcium channels, 43 µM. Also, the inhibition at 10 µM against HERG is 16%.
`COc1ccc(CCN2C(=O)N(NS(N)(=O)=O)CC2c2ccc(C)c(C)c2)cc1` (stereo not drawn) [Compound 8, 1-(Aminosulfonylamino)-3-[2-(4-methoxyphenyl)ethyl]-4-(3,4-dimethylphenyl)-2-imidazolidinone] displayed an inhibition at 1 µM against Kv1.5 (setting [1]) of 90%. Further, the IC50 in the series on L-type calcium channels turned out to be 15 µM. Moreover, 10 µM produced 16% inhibition on HERG.
With `COc1ccc(CCN2C(=O)N(NS(N)(=O)=O)CC2c2ccc(C(C)(C)C)cc2)cc1` (stereo not drawn) [Compound 9, 1-(Aminosulfonylamino)-3-[2-(4-methoxyphenyl)ethyl]-4-[4-(tert-butyl)phenyl]-2-imidazolidinone], testing at 1 µM against Kv1.5 (setting [1]) gave an inhibition of 90%. For the same molecule, the results for the IC50 against Kv1.5, in the series with L-type calcium channels and against HERG were 0.689 µM, 23 µM and 7.3 µM, respectively. At HERG, this molecule showed an inhibition at 10 µM of 62%.
Molecule `COc1ccc(CCN2C(=O)N(NS(N)(=O)=O)CC2c2ccc(C3CC3)cc2)cc1` (stereo not drawn) [Compound 10, 1-(Aminosulfonylamino)-3-[2-(4-methoxyphenyl)ethyl]-4-[(4-cyclopropyl)-phenyl]-2-imidazolidinone] had an inhibition at 1 µM on Kv1.5 (setting [1]) of 89%. Moreover, the results for the IC50 on Kv1.5 and with L-type calcium channels were 0.238 µM and 22 µM, respectively. Moreover, 10 µM produced 57% inhibition against HERG.
`COc1ccc(CCN2C(=O)N(NS(C)(=O)=O)CC2Cc2ccc(C(C)(C)C)cc2)cc1` (stereo not drawn) [Compound 11, 1-(Methylsulfonylamino)-3-[2-(4-methoxyphenyl)ethyl]-4-[(4-tert-butyl)benzyl]-2-imidazolidinone] showed an inhibition at 1 µM at Kv1.5 (setting [1]) of 95%. Further, the IC50 with L-type calcium channels was found to be 13 µM. The same molecule showed an inhibition at 10 µM on HERG of 45%.
Consider `COc1ccc(CCN2C(=O)N(NS(C)(=O)=O)CC2c2ccc(OC)c(C)c2)cc1` (stereo not drawn) [Compound 12, 1-(Methylsulfonylamino)-3-[2-(4-methoxyphenyl)ethyl]-4-[(3-methyl-4-methoxy)phenyl]-2-imidazolidinone], for which the inhibition at 1 µM against Kv1.5 (setting [1]) came to 82%. In addition, in the series with L-type calcium channels, the half-inhibitory concentration (IC50) amounted to 38 µM. This molecule gave an inhibition at 10 µM against HERG of 19%.
On to `COc1ccc(CCN2C(=O)N(NS(C)(=O)=O)CC2c2ccc(C)c(OC)c2)cc1` (stereo not drawn) [Compound 13, 1-(Methylsulfonylamino)-3-[2-(4-methoxyphenyl)ethyl]-4-[(3-methoxy-4-methyl)phenyl]-2-imidazolidinone], for which at 1 µM the inhibition against Kv1.5 (setting [1]) was 83%. For the same molecule, the IC50 in the series with L-type calcium channels amounted to 27 µM. The same molecule returned an inhibition at 10 µM against HERG of 10%.
`COc1ccc(CCN2C(=O)N(NS(C)(=O)=O)CC2c2ccc3c(c2)OCCO3)cc1` (stereo not drawn) [Compound 17, 1-(Methylsulfonylamino)-3-[2-(4-methoxyphenyl)ethyl]-4-[(2,3-dihydro-benzo[1,4]dioxin-6-yl)]-2-imidazolidinone]: at 1 µM the inhibition against Kv1.5 (setting [1]) was 89%. Moreover, the IC50 in the series on L-type calcium channels was determined as 40 µM. Besides, the inhibition at 10 µM on HERG turned out to be 22%.
At Kv1.5 (setting [1]), `COc1ccc(CCN2C(=O)N(NS(C)(=O)=O)CC2c2ccc3c(c2)OC(C)(C)O3)cc1` (stereo not drawn) [Compound 18, 1-(Methylsulfonylamino)-3-[2-(4-methoxyphenyl)ethyl]-4-(2,2-dimethylbenzo-[1,3]dioxol-5-yl)-2-imidazolidinone] returned an inhibition at 1 µM of 59%. Also, in the series with L-type calcium channels, the IC50 stood at 24 µM. This molecule had an inhibition at 10 µM against HERG of 12%.
On Kv1.5 (setting [1]), `COc1ccc(CCN2C(=O)N(NS(C)(=O)=O)CC2c2ccc(C)cc2)cc1` (stereo not drawn) [Compound 20, 1-(Methylsulfonylamino)-3-[(4-methoxyphenyl)ethyl]-4-(4-methylphenyl)-2-imidazolidinone] had an inhibition at 1 µM of 73%. Besides, the IC50 in the series with L-type calcium channels worked out at 30 µM. Moreover, the inhibition at 10 µM on HERG came to 15%.
At Kv1.5 (setting [1]), `COc1ccc(CCN2C(=O)N(NS(C)(=O)=O)CC2c2ccc(OC)cc2)cc1` (stereo not drawn) [Compound 23, 1-(Methylsulfonylamino)-3-[2-(4-methoxyphenyl)ethyl]-4-(4-methoxyphenyl)-2-imidazolidinone] displayed an inhibition at 1 µM of 66%. The IC50 against Kv1.5 stood at 0.703 µM; in the series on L-type calcium channels, 30 µM; at HERG, 23.6 µM. Besides, the inhibition at 10 µM at HERG came to 21%.
The molecule `COc1ccc(CCN2C(=O)N(NS(C)(=O)=O)CC2c2ccc(C(C)(C)C)cc2)cc1` (stereo not drawn) [Compound 24, 1-(Methylsulfonylamino)-3-[(4-methoxyphenyl)ethyl]-4-[4-(tert-butyl)phenyl]-imidazolidinone] yielded an inhibition at 1 µM on Kv1.5 (setting [1]) of 82%. In addition, the IC50 was found to be 0.514 µM against Kv1.5, 10 µM with L-type calcium channels and 6.4 µM against HERG. Besides, the inhibition at 10 µM on HERG was determined as 74%.
For the molecule `CCN(CC)c1ccc(C2CN(NS(C)(=O)=O)C(=O)N2CCc2ccc(OC)cc2)cc1` (stereo not drawn) [Compound 25, 1-(Methylsulfonylamino)-3-[2-(4-methoxyphenyl)ethyl]-4-[(4-diethylamino)-phenyl]-2-imidazolidinone], the inhibition at 1 µM against Kv1.5 (setting [1]) was determined as 84%. Also, the IC50 with L-type calcium channels worked out at 28 µM. At HERG, this molecule came in with an inhibition at 10 µM of 31%.
On to `COc1ccc(CCN2C(=O)N(NS(C)(=O)=O)CC2c2ccc(OC(F)F)cc2)cc1` (stereo not drawn) [Compound 26, 1-[(Methylsulfonyl)amino]-3-[2-(4-methoxyphenyl)ethyl]-4-(4-difluoro-methoxyphenyl)-2-imidazolidinone], for which the inhibition at 1 µM against Kv1.5 (setting [1]) was found to be 66%. The IC50 against Kv1.5 was 0.716 µM; in the series with L-type calcium channels it was 17.5 µM; against HERG, 4.1 µM. Also, 10 µM produced 76% inhibition on HERG.
As to `COc1ccc(CCN2C(=O)N(NS(C)(=O)=O)CC2c2ccc(OC(F)(F)F)cc2)cc1` (stereo not drawn) [Compound 27, 1-[(Methylsulfonyl)amino]-3-[2-(4-methoxyphenyl)ethyl]-4-(4-trifluoro-methoxyphenyl)-2-imidazolidinone], at Kv1.5 (setting [1]), the “Kv1.5% inhibition @ 1.0 μM” value amounted to 56%. In the series with L-type calcium channels, the IC50 was determined as 19 µM. On HERG (10 μM, single point, whole cell patch clamp, HERG stably over expressed in HEK cells, peak tail current), the “HERG % Inhib. @ 10 μM” value turned out to be 63%.
In turn, `COc1ccc(CCN2C(=O)N(NS(C)(=O)=O)CC2c2ccc(C3CC3)cc2)cc1` (stereo not drawn) [Compound 28, 1-[(Methylsulfonyl)amino]-3-[(4-methoxyphenyl)ethyl]-4-(4-cyclopropylphenyl)-2-imidazolidinone] yielded an inhibition at 1 µM against Kv1.5 (setting [1]) of 89%. The values for the IC50 against Kv1.5, in the series with L-type calcium channels and on HERG were 0.184 µM, 16 µM and 10.3 µM, respectively. Moreover, the inhibition at 10 µM against HERG stood at 30%.
The molecule `COc1ccc(CCN2C(=O)N(NS(=O)(=O)C3CC3)CC2c2ccc(OC)cc2)cc1` (stereo not drawn) [Compound 29, 1-(Cyclopropylsulfonylamino)-3-[(4-methoxyphenyl)ethyl]-4-(4-methoxyphenyl)-2-imidazolidinone] displayed an inhibition at 1 µM against Kv1.5 (setting [1]) of 85%. Also, in the series on L-type calcium channels, the IC50 turned out to be 34 µM. For the same molecule, at 10 µM the inhibition against HERG was 31%.
As for `CCCS(=O)(=O)NN1CC(c2ccc(C3CC3)cc2)N(CCc2ccc(OC)cc2)C1=O` (stereo not drawn) [Compound 30, 1-(Propylsulfonylamino)-3-[(4-methoxyphenyl)ethyl]-4-(4-cyclopropylphenyl)-2-imidazolidinone], at Kv1.5 (setting [1]), the inhibition at 1 µM turned out to be 88%. Also, the IC50 with L-type calcium channels came to 3.3 µM. This molecule displayed an inhibition at 10 µM against HERG of 62%.
In turn, `C=CS(=O)(=O)NN1CC(c2ccc3c(c2)OCCO3)N(CCc2ccc(OC)cc2)C1=O` (stereo not drawn) [Compound 33, 1-(Vinylsulfonylamino)-3-[2-(4-methoxyphenyl)ethyl]-4-[(2,3-dihydrobenzo-[1,4]dioxin-6-yl)]-2-imidazolidinone] returned an inhibition at 1 µM against Kv1.5 (setting [1]) of 85%. The concentration for half-maximal inhibition (IC50) in the series with L-type calcium channels is 35 µM. On HERG, this molecule returned an inhibition at 10 µM of 20%.
Regarding `COc1ccc(CCN2C(=O)N(NS(=O)(=O)CF)CC2c2ccc(C3CC3)cc2)cc1` (stereo not drawn) [Compound 34, 1-(Fluoromethylsulfonylamino)-3-[2-(4-methoxyphenyl)ethyl]-4-(4-cyclopropyl-phenyl)-2-imidazolidinone], the inhibition at 1 µM against Kv1.5 (setting [1]) worked out at 98%. Besides, the IC50 in the series with L-type calcium channels turned out to be 18 µM. At HERG, this molecule returned an inhibition at 10 µM of 38%.
On the same counts, the results for `COc1ccc(CCN2C(=O)N(NS(=O)(=O)CF)CC2c2ccc(OC)cc2)cc1` (stereo not drawn) [Compound 35, 1-(Fluoromethylsulfonylamino)-3-[2-(4-methoxyphenyl)ethyl]-4-(4-methoxy-phenyl)-2-imidazolidinone] are 71%, 30 µM and 14%.
`COc1ccc(CCN2C(=O)N(NS(=O)(=O)CF)CC2c2ccc(C(C)(C)C)cc2)cc1` (stereo not drawn) [Compound 36, 1-(Fluoromethylsulfonylamino)-3-[2-(4-methoxyphenyl)ethyl]-4-(4-tert-butyl-phenyl)-2-imidazolidinone]: at Kv1.5 (setting [1]), the inhibition at 1 µM stood at 85%. Besides, in the series with L-type calcium channels, the concentration for half-maximal inhibition (IC50) is 14 µM. This molecule gave an inhibition at 10 µM against HERG of 50%.

(Values after patent publication US7504517B2, “Kv1.5 potassium channel inhibitors” (Wyeth, priority 2006, dated 2009).)
